# In US8236958B2, “Polymorphic forms of a GABAA agonist” (H. Lundbeck A/S, priority 2004, dated 2012):
# Tests used:
# [1] = thermal decomposition studies; assay type: physicochemical; conditions: based on thermal decomposition studies; monohydrate form II vs anhydrous form II
# [2] = relative thermodynamic stability of crystalline forms; assay type: physicochemical; conditions: comparison of form II with form I of the same hydration state
# Description: (§1) (The anhydrate of form I reverts to the monohydrate at 25° C./70% RH, while the anhydrate of form II reverts to the monohydrate at 25° C./90% RH).
# [3] = reversion of anhydrate to monohydrate under humidity; assay type: physicochemical; conditions: 25° C.
# Description: as §1
# [4] = molecular target: GABAA receptors comprising α4 and δ subunits (Homo sapiens, UniProt O14764+P28472+P48169); conditions: Brown et al, British J. Pharmacol., 136, 965-74 (2002); cited from earlier work
# GABAA receptors comprising α4 and δ subunits, sequence (P48169 36-554): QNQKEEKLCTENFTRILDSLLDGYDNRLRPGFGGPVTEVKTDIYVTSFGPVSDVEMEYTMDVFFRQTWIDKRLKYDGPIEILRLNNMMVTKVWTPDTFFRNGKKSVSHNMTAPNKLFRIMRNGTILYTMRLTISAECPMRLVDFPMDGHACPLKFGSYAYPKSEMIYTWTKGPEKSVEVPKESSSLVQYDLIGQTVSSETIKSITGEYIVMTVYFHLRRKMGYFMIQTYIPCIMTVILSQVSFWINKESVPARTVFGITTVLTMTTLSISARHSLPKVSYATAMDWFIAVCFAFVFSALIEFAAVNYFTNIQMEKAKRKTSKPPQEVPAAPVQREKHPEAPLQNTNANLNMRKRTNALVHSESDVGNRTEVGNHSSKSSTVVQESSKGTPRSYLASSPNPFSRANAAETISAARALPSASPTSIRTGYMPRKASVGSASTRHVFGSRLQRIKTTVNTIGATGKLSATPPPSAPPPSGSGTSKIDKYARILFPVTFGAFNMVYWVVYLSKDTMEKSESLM
# GABAA receptors comprising α4 and δ subunits, sequence (O14764 25-452): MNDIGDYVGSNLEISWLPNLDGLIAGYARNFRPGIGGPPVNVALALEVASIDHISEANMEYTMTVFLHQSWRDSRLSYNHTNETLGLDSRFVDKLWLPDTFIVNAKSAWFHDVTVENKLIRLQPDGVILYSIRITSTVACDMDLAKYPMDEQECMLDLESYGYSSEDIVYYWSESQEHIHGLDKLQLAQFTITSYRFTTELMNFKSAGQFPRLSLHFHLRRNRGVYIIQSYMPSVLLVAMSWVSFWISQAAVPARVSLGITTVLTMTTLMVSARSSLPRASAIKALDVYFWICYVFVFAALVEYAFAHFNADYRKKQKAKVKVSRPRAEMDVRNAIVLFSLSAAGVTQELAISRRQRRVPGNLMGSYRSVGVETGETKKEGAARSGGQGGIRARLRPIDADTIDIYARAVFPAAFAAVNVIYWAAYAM
# GABAA receptors comprising α4 and δ subunits, sequence (P28472 26-473): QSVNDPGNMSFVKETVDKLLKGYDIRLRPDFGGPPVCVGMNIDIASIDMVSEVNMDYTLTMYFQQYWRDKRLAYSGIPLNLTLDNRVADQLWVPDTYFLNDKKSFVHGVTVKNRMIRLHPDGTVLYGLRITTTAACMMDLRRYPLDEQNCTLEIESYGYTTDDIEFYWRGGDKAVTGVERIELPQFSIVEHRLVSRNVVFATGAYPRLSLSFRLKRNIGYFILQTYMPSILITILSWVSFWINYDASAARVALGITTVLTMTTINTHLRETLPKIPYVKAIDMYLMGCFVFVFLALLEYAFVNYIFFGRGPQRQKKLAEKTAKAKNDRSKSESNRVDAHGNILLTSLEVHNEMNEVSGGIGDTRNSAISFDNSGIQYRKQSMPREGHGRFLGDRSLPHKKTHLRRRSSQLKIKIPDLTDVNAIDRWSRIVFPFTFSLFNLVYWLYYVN
structure (smiles),measurement,setting,value
"Oc1noc2c1CCNC2 [Gaboxadol monohydrate of form II, 4,5,6,7-tetrahydroisoxazolo[5,4-c]pyridin-3-ol]",thermal profile,[1],safer thermal profile than the anhydrous form II
same,thermodynamic stability relative to the other polymorph,[2],thermodynamically more stable than the monohydrate of form I
"Oc1noc2c1CCNC2 [anhydrate of form I, 4,5,6,7-tetrahydroisoxazolo[5,4-c]pyridin-3-ol]",relative humidity at which the anhydrate reverts to the monohydrate,[3],70 % RH
"Oc1noc2c1CCNC2 [anhydrate of form II, 4,5,6,7-tetrahydroisoxazolo[5,4-c]pyridin-3-ol]",thermodynamic stability relative to the other polymorph,[2]; listed as gaboxadol anhydrate of form II,more stable than the anhydrate of form I
same,relative humidity at which the anhydrate reverts to the monohydrate,[3],90 % RH
"Oc1noc2c1CCNC2 [gaboxadol, 4,5,6,7-tetrahydroisoxazolo[5,4-c]pyridin-3-ol]",agonist potency,[4],particularly potent agonist
